The record followed here is patent publication US20260014119A1, “EMOPAMIL-BINDING PROTEIN INHIBITORS AND USES THEREOF” (BIOGEN MA INC., priority 2022, published 2026).

A value given as a limit tells only on which side of the number the result lay.

For this test, the target named is T1, EBP (Homo sapiens, UniProt Q15125).
T1 construct: HEK293T cells were utilized as the source of EBP enzyme; endogenous in cells; host or cells: HEK293T
T1 sequence (Q15125 whole entry): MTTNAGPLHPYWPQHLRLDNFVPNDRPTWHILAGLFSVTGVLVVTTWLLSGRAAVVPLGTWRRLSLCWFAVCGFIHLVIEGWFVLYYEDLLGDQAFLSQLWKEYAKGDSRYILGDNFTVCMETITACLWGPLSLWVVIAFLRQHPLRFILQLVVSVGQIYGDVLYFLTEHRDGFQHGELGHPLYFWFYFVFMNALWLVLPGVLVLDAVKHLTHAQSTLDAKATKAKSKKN
In words: EBP Functional Assay (EBP immunoaffinity LC-MS assay). The test is classed as biochemical. The conditions noted are these: EBP enzyme from HEK293T cells; 30 min with inhibitor, then zymosterol-d5 at 37° C. for 4 h; percent conversion by LC-APCI MRM MS. The procedure:
The EBP immunoaffinity (IA) LC-MS assay measures the potency of small molecule inhibitors of EBP by quantifying their concentration-dependent changes in the enzyme's substrate and product using liquid chromatography atmospheric pressure chemical ionization multiple reaction monitoring mass spectrometry (LC-APCI MRM MS). HEK293T cells were utilized as the source of EBP enzyme. The enzyme was incubated with the small molecule inhibitors at variable concentrations for 30 min. Deuterated form of EBP substrate, zymosterol-d5 (Avanti Polar Lipids, Cat #700068P-1 mg), was then added and the plate was incubated at 37° C. for 4 h. Finally, the sterol isomers were extracted and injected to LC-APCI MRM MS. MRM transition used for the quantification for both zymosterol and […] (substrate and product of EBP enzymatic reaction, respectively) is 372.3-203.2, CE 30 and DP 80 in positive ion mode. Percent conversion of the zymosterol-d5 to dehydrolathosterol-d5 was used to derive IC50 curves. Tasin-1 (1′-[(4-Methoxyphenyl)sulfonyl]-4-methyl-1,4′-bipiperidine, CAS 792927-06-1) was used as the reference small molecule inhibitor.
Percent conversion versus the compound concentration data were fit to the following 4-parameter logistic model to generate IC50 curves: […]
Turning to `Cc1nc(C(F)(F)F)ccc1S(=O)(=O)N1C[C@H]2CN(C3CC4(COC4)C3)C[C@@H]2C1` (racemic) [Example 50, Rac-(3aR,6aR)-2-((2-methyl-6-(trifluoromethyl)pyridin-3-yl)sulfonyl)-5-(2-oxaspiro[3.3]heptan-6-yl)octahydropyrrolo[3,4-c]pyrrole], the IC50 is less than 100 nM.

Take `Cc1nc(C(F)(F)F)ccc1S(=O)(=O)N1C[C@H]2CN(CC3CCOCC3)C[C@@H]2C1` (racemic) [Example 51, Rac-(3aR,6aR)-2-((2-methyl-6-(trifluoromethyl)pyridin-3-yl)sulfonyl)-5-((tetrahydro-2H-pyran-4-yl)methyl)octahydropyrrolo[3,4-c]pyrrole]: the IC50 was less than 100 nM.

The compound `Cc1nc(C(F)(F)F)ccc1S(=O)(=O)N1C[C@H]2CN(CC3COC3)C[C@@H]2C1` (racemic) [Example 52, Rac-(3aR,6aR)-2-((2-methyl-6-(trifluoromethyl)pyridin-3-yl)sulfonyl)-5-(oxetan-3-ylmethyl)octahydropyrrolo[3,4-c]pyrrole] displayed an IC50 greater than 500 nM.

In the case of `Cc1nc(C(F)(F)F)ccc1S(=O)(=O)N1C[C@H]2CN(CC34CCOC(C)(C3)C4)C[C@@H]2C1` (racemic) [Example 53, Rac-(3aR,6aR)-2-((1-methyl-2-oxabicyclo[3.1.1]heptan-5-yl)methyl)-5-((2-methyl-6-(trifluoromethyl)pyridin-3-yl)sulfonyl)octahydropyrrolo[3,4-c]pyrrole], the 50% inhibitory concentration (IC50) fell in the range of 100 to 500 nM.

In turn, `Cc1nc(C(F)(F)F)ccc1S(=O)(=O)N1C[C@H]2CN(CC34COC(C)(C3)C4)C[C@@H]2C1` (racemic) [Example 54] displayed an IC50 of 100 to 500 nM.

With `Cc1nc(C(F)(F)F)ncc1S(=O)(=O)N1C[C@H]2CN(C3CCOCC3)C[C@@H]2C1` (racemic) [Example 57, Rac-(3aR,6aR)-2-((4-methyl-2-(trifluoromethyl)pyrimidin-5-yl)sulfonyl)-5-(tetrahydro-2H-pyran-4-yl)octahydropyrrolo[3,4-c]pyrrole], the IC50 lay within 100 to 500 nM.

In the case of `Cc1nc(C(F)(F)F)ncc1S(=O)(=O)N1C[C@H]2CN(C3CC4(COC4)C3)C[C@@H]2C1` (racemic) [Example 58, Rac-(3aR,6aR)-2-((4-methyl-2-(trifluoromethyl)pyrimidin-5-yl)sulfonyl)-5-(2-oxaspiro[3.3]heptan-6-yl)octahydropyrrolo[3,4-c]pyrrole], the IC50 is 100 to 500 nM.

For `Cc1nc(C(F)(F)F)ncc1S(=O)(=O)N1C[C@H]2CN(CC3CCOCC3)C[C@@H]2C1` (racemic) [Example 59, Rac-(3aR,6aR)-2-((4-methyl-2-(trifluoromethyl)pyrimidin-5-yl)sulfonyl)-5-((tetrahydro-2H-pyran-4-yl)methyl)octahydropyrrolo[3,4-c]pyrrole], the concentration for half-maximal inhibition (IC50) is 100 to 500 nM.

As to `Cc1nc(C(F)(F)F)ccc1S(=O)(=O)N1C[C@@H]2CN(C3CCOCC3)C[C@H]2C1` (single isomer, unassigned) [Example 47], the 50% inhibitory concentration (IC50) lay within 100 to 500 nM.

Consider `Cc1nc(C(F)(F)F)ccc1S(=O)(=O)N1C[C@H]2CN(C3CCOCC3)C[C@@H]2C1` (single isomer, unassigned) [Example 48], for which the IC50 was in the range of 100 to 500 nM.

`Cc1nc(C(F)(F)F)ccc1S(=O)(=O)N1C[C@@H]2CN(CC34COC(C)(C3)C4)C[C@H]2C1` (single isomer, unassigned) [Example 55] had an IC50 of 100 to 500 nM.

The compound `Cc1nc(C(F)(F)F)ccc1S(=O)(=O)N1C[C@H]2CN(CC34COC(C)(C3)C4)C[C@@H]2C1` (single isomer, unassigned) [Example 56] yielded an IC50 of 100 to 500 nM.

`Cc1ccc(S(=O)(=O)N2C[C@H]3C[C@@H](NCC4CCOCC4)C[C@H]3C2)c(C)c1` [Example 1, (3aR,5r,6aS)-2-((2,4-Dimethylphenyl)sulfonyl)-N-((tetrahydro-2H-pyran-4-yl)methyl)octahydrocyclopenta[c]pyrrol-5-amine] returned a 50% inhibitory concentration (IC50) of less than 100 nM.

`O=S(=O)(c1ccc(OC(F)F)cc1)N1C[C@H]2C[C@@H](NCC3CCOCC3)C[C@H]2C1` [Example 2, (3aR,5r,6aS)-2-((4-(Difluoromethoxy)phenyl)sulfonyl)-N-((tetrahydro-2H-pyran-4-yl)methyl)octahydrocyclopenta[c]pyrrol-5-amine]: the IC50 is 100 to 500 nM.

Regarding `Cc1ccc(S(=O)(=O)N2C[C@H]3C[C@H](N4CCC(C)CC4)C[C@H]3C2)c(C)c1` [Example 3, (3aR,5s,6aS)-2-((2,4-Dimethylphenyl)sulfonyl)-5-(4-methylpiperidin-1-yl)octahydrocyclopenta[c]pyrrole], the IC50 is less than 100 nM.

In turn, `CC1CCN([C@H]2C[C@@H]3CN(S(=O)(=O)c4ccc(OC(F)F)cc4)C[C@@H]3C2)CC1` [Example 4, (3aR,5s,6aS)-2-((4-(Difluoromethoxy)phenyl)sulfonyl)-5-(4-methylpiperidin-1-yl)octahydrocyclopenta[c]pyrrole] had an IC50 of 100 to 500 nM.

The compound `Cc1ccc(S(=O)(=O)N2C[C@H]3C[C@@H](N4CCC(C)CC4)C[C@H]3C2)c(C)c1` [Example 5, (3aR,5r,6aS)-2-((2,4-Dimethylphenyl)sulfonyl)-5-(4-methylpiperidin-1-yl)octahydrocyclopenta[c]pyrrole] came in with an IC50 of less than 100 nM.

Consider `CC1CCN([C@@H]2C[C@@H]3CN(S(=O)(=O)c4ccc(OC(F)F)cc4)C[C@@H]3C2)CC1` [Example 6, (3aR,5r,6aS)-2-((4-(Difluoromethoxy)phenyl)sulfonyl)-5-(4-methylpiperidin-1-yl)octahydrocyclopenta[c]pyrrole], for which the half-maximal inhibitory concentration (IC50) was 100 to 500 nM.

For the compound `Cc1ccc(S(=O)(=O)N2C[C@H]3C[C@H](NCC4CCOCC4)C[C@H]3C2)c(C)c1` [Example 7, (3aR,5s,6aS)-2-((2,4-Dimethylphenyl)sulfonyl)-N-((tetrahydro-2H-pyran-4-yl)methyl)octahydrocyclopenta[c]pyrrol-5-amine], the IC50 was less than 100 nM.

`O=S(=O)(c1ccc(OC(F)F)cc1)N1C[C@H]2C[C@H](NCC3CCOCC3)C[C@H]2C1` [Example 8, (3aR,5s,6aS)-2-((4-(Difluoromethoxy)phenyl)sulfonyl)-N-((tetrahydro-2H-pyran-4-yl)methyl)octahydrocyclopenta[c]pyrrol-5-amine]: the IC50 lay within 100 to 500 nM.

Regarding `COc1ncc(C)cc1S(=O)(=O)N1C[C@H]2C[C@H](NCC3CCOCC3)C[C@H]2C1` [Example 9, (3aR,5s,6aS)-2-((2-Methoxy-5-methylpyridin-3-yl)sulfonyl)-N-((tetrahydro-2H-pyran-4-yl)methyl)octahydrocyclopenta[c]pyrrol-5-amine], the IC50 lay within 100 to 500 nM.

`Cc1cc(C)c(S(=O)(=O)N2C[C@H]3C[C@H](NCC4CCOCC4)C[C@H]3C2)cn1` [Example 10, (3aR,5s,6aS)-2-((4,6-Dimethylpyridin-3-yl)sulfonyl)-N-((tetrahydro-2H-pyran-4-yl)methyl)octahydrocyclopenta[c]pyrrol-5-amine] gave a concentration for half-maximal inhibition (IC50) greater than 500 nM.

Compound `Cn1nc(C2CC2)cc1S(=O)(=O)N1C[C@H]2C[C@H](NCC3CCOCC3)C[C@H]2C1` [Example 12, (3aR,5s,6aS)-2-((3-Cyclopropyl-1-methyl-1H-pyrazol-5-yl)sulfonyl)-N-((tetrahydro-2H-pyran-4-yl)methyl)octahydrocyclopenta[c]pyrrol-5-amine] gave an IC50 of 100 to 500 nM.

`O=S(=O)(c1ccc(OC(F)F)cc1)N1C[C@H]2C[C@H](N3CCOCC3)C[C@H]2C1` [Example 13, 4-((3aR,5r,6aS)-2-((4-(Difluoromethoxy)phenyl)sulfonyl)octahydrocyclopenta[c]pyrrol-5-yl)morpholine] yielded an IC50 greater than 500 nM.

As to `O=S(=O)(c1ccc(OC(F)F)cc1)N1C[C@H]2C[C@H](NC3COC3)C[C@H]2C1` [Example 14, (3aR,5s,6aS)-2-((4-(Difluoromethoxy)phenyl)sulfonyl)-N-(oxetan-3-yl)octahydrocyclopenta[c]pyrrol-5-amine], the IC50 was greater than 500 nM.

Compound `O=S(=O)(c1ccc(OC(F)F)cc1)N1C[C@H]2C[C@H](NC3CCOC3)C[C@H]2C1` (stereo partly drawn) [Example 15, (3aR,5s,6aS)-2-((4-(Difluoromethoxy)phenyl)sulfonyl)-N-(tetrahydrofuran-3-yl)octahydrocyclopenta[c]pyrrol-5-amine] gave an IC50 of 100 to 500 nM.

`O=S(=O)(c1ccc(OC(F)F)cc1)N1C[C@H]2C[C@H](NC3CCOCC3)C[C@H]2C1` [Example 16, (3aR,5s,6aS)-2-((4-(Difluoromethoxy)phenyl)sulfonyl)-N-(tetrahydro-2H-pyran-4-yl)octahydrocyclopenta[c]pyrrol-5-amine] returned an IC50 of less than 100 nM.

`CN(CC1CCOCC1)[C@H]1C[C@@H]2CN(S(=O)(=O)c3ccc(OC(F)F)cc3)C[C@@H]2C1` [Example 17, (3aR,5s,6aS)-2-((4-(Difluoromethoxy)phenyl)sulfonyl)-N-methyl-N-((tetrahydro-2H-pyran-4-yl)methyl)octahydrocyclopenta[c]pyrrol-5-amine] showed an IC50 of 100 to 500 nM.
